According to PMC11277489, “Novel Piperazine Derivatives of Vindoline as Anticancer Agents” (International Journal of Molecular Sciences, 2024):

Assays:
OVCAR-3 = assay: NCI60 five-dose screen, Ovarian Cancer; assay type: cell-based; conditions: Homo sapiens; OVCAR-3, Ovarian Cancer; five-dose screen; read-out: GI50
SW-620 = assay: NCI60 five-dose screen, Colon Cancer; assay type: cell-based; conditions: Homo sapiens; SW-620, Colon Cancer; five-dose screen; read-out: GI50
UO-31 = assay: NCI60 one-dose screen (10 μM), Renal Cancer; assay type: cell-based; conditions: Homo sapiens; 10 μM; UO-31, Renal Cancer; read-out: Growth percent rate
MDA-MB-231/ATCC = assay: NCI60 one-dose screen (10 μM), Breast Cancer; assay type: cell-based, human; conditions: Homo sapiens; 10 μM; MDA-MB-231/ATCC, Breast Cancer; read-out: Growth percent rate
OVCAR-5 [1] = assay: NCI60 one-dose screen (10 μM), Ovarian Cancer; assay type: cell-based; conditions: Homo sapiens; 10 μM; OVCAR-5, Ovarian Cancer; read-out: Growth percent rate
COLO 205 [2] = assay: NCI60 five-dose screen, Colon Cancer; assay type: cell-based; conditions: Homo sapiens; COLO 205, Colon Cancer; five-dose screen; read-out: GI50
LOX IMVI = assay: NCI60 one-dose screen (10 μM), Melanoma; assay type: cell-based, human; conditions: Homo sapiens; 10 μM; LOX IMVI, Melanoma; read-out: Growth percent rate
RXF 393 = assay: NCI60 one-dose screen (10 μM), Renal Cancer; assay type: cell-based, human; conditions: Homo sapiens; 10 μM; RXF 393, Renal Cancer; read-out: Growth percent rate
MDA-MB-468 = assay: NCI60 one-dose screen (10 μM), Breast Cancer; assay type: cell-based; conditions: Homo sapiens; 10 μM; MDA-MB-468, Breast Cancer; read-out: Growth percent rate
SF-539 = assay: NCI60 one-dose screen (10 μM), CNS Cancer; assay type: cell-based, human; conditions: Homo sapiens; 10 μM; SF-539, CNS Cancer; read-out: Growth percent rate
KM12 = assay: NCI60 five-dose screen, Colon Cancer; assay type: cell-based; conditions: Homo sapiens; KM12, Colon Cancer; five-dose screen; read-out: GI50
BT-549 = assay: NCI60 one-dose screen (10 μM), Breast Cancer; assay type: cell-based; conditions: Homo sapiens; 10 μM; BT-549, Breast Cancer; read-out: Growth percent rate
NCI-H23 = assay: NCI60 five-dose screen, Non-small Cell Lung Cancer; assay type: cell-based; conditions: Homo sapiens; NCI-H23, Non-small Cell Lung Cancer; five-dose screen; read-out: GI50
HOP-92 [3] = assay: NCI60 one-dose screen (10 μM), Non-small Cell Lung Cancer; assay type: cell-based; conditions: Homo sapiens; 10 μM; HOP-92, Non-small Cell Lung Cancer; read-out: Growth percent rate
SR = assay: NCI60 one-dose screen (10 μM), Leukemia; assay type: cell-based; conditions: Homo sapiens, 10 μM, Leukemia, read-out: Growth percent rate
NCI/ADR-RES [4] = assay: NCI60 five-dose screen, Ovarian Cancer; assay type: cell-based; conditions: Homo sapiens, Ovarian Cancer, five-dose screen, read-out: GI50
NCI-H226 [5] = assay: NCI60 five-dose screen, Non-small Cell Lung Cancer; assay type: cell-based; conditions: Homo sapiens; NCI-H226, Non-small Cell Lung Cancer; five-dose screen; read-out: GI50
IGROV1 = assay: NCI60 five-dose screen, Ovarian Cancer; assay type: cell-based; conditions: Homo sapiens, IGROV-1; IGROV1, Ovarian Cancer; five-dose screen; read-out: GI50
HCT-15 = assay: NCI60 one-dose screen (10 μM), Colon Cancer; assay type: cell-based; conditions: Homo sapiens; 10 μM; HCT-15, Colon Cancer; read-out: Growth percent rate
NCI-H226 [6] = assay: NCI60 one-dose screen (10 μM), Non-small Cell Lung Cancer; assay type: cell-based; conditions: Homo sapiens; 10 μM; NCI-H226, Non-small Cell Lung Cancer; read-out: Growth percent rate
NCI-H522 = assay: NCI60 five-dose screen, Non-small Cell Lung Cancer; assay type: cell-based; conditions: Homo sapiens; NCI-H522, Non-small Cell Lung Cancer; five-dose screen; read-out: GI50
HCC-2998 = assay: NCI60 five-dose screen, Colon Cancer; assay type: cell-based; conditions: Homo sapiens; HCC-2998, Colon Cancer; five-dose screen; read-out: GI50
PC-3 = assay: NCI60 one-dose screen (10 μM), Prostate Cancer; assay type: cell-based; conditions: Homo sapiens; 10 μM; PC-3, Prostate Cancer; read-out: Growth percent rate
T-47D [7] = assay: NCI60 one-dose screen (10 μM), Breast Cancer; assay type: cell-based; conditions: Homo sapiens, T47D; 10 μM; T-47D, Breast Cancer; read-out: Growth percent rate
DU-145 = assay: NCI60 five-dose screen, Prostate Cancer; assay type: cell-based; conditions: Homo sapiens; DU-145, Prostate Cancer; five-dose screen; read-out: GI50
HL-60(TB) = assay: NCI60 five-dose screen, Leukemia; assay type: cell-based; conditions: Homo sapiens; HL-60(TB), Leukemia; five-dose screen; read-out: GI50
TK-10 = assay: NCI60 five-dose screen, Renal Cancer; assay type: cell-based; conditions: Homo sapiens; TK-10, Renal Cancer; five-dose screen; read-out: GI50
NCI-H460 = assay: NCI60 five-dose screen, Non-small Cell Lung Cancer; assay type: cell-based; conditions: Homo sapiens; NCI-H460, Non-small Cell Lung Cancer; five-dose screen; read-out: GI50
HS 578T = assay: NCI60 one-dose screen (10 μM), Breast Cancer; assay type: cell-based; conditions: Homo sapiens; 10 μM; HS 578T, Breast Cancer; read-out: Growth percent rate
T-47D [8] = assay: NCI60 five-dose screen, Breast Cancer; assay type: cell-based; conditions: Homo sapiens, T47D; T-47D, Breast Cancer; five-dose screen; read-out: GI50
786–0 = assay: NCI60 five-dose screen, Renal Cancer; assay type: cell-based; conditions: Homo sapiens; 786–0, Renal Cancer; five-dose screen; read-out: GI50
COLO 205 [9] = assay: NCI60 one-dose screen (10 μM), Colon Cancer; assay type: cell-based, human; conditions: Homo sapiens; 10 μM; COLO 205, Colon Cancer; read-out: Growth percent rate
SN12C = assay: NCI60 five-dose screen, Renal Cancer; assay type: cell-based; conditions: Homo sapiens, Renal Cancer, five-dose screen, read-out: GI50
HOP-92 [10] = assay: NCI60 five-dose screen, Non-small Cell Lung Cancer; assay type: cell-based; conditions: Homo sapiens; HOP-92, Non-small Cell Lung Cancer; five-dose screen; read-out: GI50
SK-OV-3 [11] = assay: NCI60 five-dose screen, Ovarian Cancer; assay type: cell-based; conditions: Homo sapiens; SK-OV-3, Ovarian Cancer; five-dose screen; read-out: GI50
ACHN = assay: NCI60 five-dose screen, Renal Cancer; assay type: cell-based; conditions: Homo sapiens, Renal Cancer, five-dose screen, read-out: GI50
UACC-62 = assay: NCI60 one-dose screen (10 μM), Melanoma; assay type: cell-based; conditions: Homo sapiens; 10 μM; UACC-62, Melanoma; read-out: Growth percent rate
SK-OV-3 [12] = assay: NCI60 one-dose screen (10 μM), Ovarian Cancer; assay type: cell-based; conditions: Homo sapiens; 10 μM; SK-OV-3, Ovarian Cancer; read-out: Growth percent rate
MALME-3M = assay: NCI60 five-dose screen, Melanoma; assay type: cell-based; conditions: Homo sapiens; MALME-3M, Melanoma; five-dose screen; read-out: GI50
A498 = assay: NCI60 five-dose screen, Renal Cancer; assay type: cell-based; conditions: Homo sapiens; A498, Renal Cancer; five-dose screen; read-out: GI50
SNB-75 = assay: NCI60 five-dose screen, CNS Cancer; assay type: cell-based; conditions: Homo sapiens; SNB-75, CNS Cancer; five-dose screen; read-out: GI50
OVCAR-5 [13] = assay: NCI60 five-dose screen, Ovarian Cancer; assay type: cell-based; conditions: Homo sapiens; OVCAR-5, Ovarian Cancer; five-dose screen; read-out: GI50
MCF7 = assay: NCI60 five-dose screen, Breast Cancer; assay type: cell-based; conditions: Homo sapiens; MCF7, Breast Cancer; five-dose screen; read-out: GI50
CCRF-CEM = assay: NCI60 five-dose screen, Leukemia; assay type: cell-based; conditions: Homo sapiens, Leukemia, five-dose screen, read-out: GI50
CAKI-1 = assay: NCI60 five-dose screen, Renal Cancer; assay type: cell-based; conditions: Homo sapiens; CAKI-1, Renal Cancer; five-dose screen; read-out: GI50
NCI/ADR-RES [14] = assay: NCI60 one-dose screen (10 μM), Ovarian Cancer; assay type: cell-based; conditions: Homo sapiens, 10 μM, Ovarian Cancer, read-out: Growth percent rate

CC[C@]12C=CCN3CC[C@@]4(c5ccc(OC)cc5N(C)[C@H]4[C@@](O)(C(=O)OC)[C@@H]1OC(=O)CCCN1CCN(Cc4ccc(C(F)(F)F)cc4)CC1)[C@@H]32 [Compound 23] showed a GI50 (OVCAR-3) of 1550 nM, a GI50 (SW-620) of 1550 nM and an activity at 10 µM (UO-31) of -69.5%. It also gave an activity at 10 µM (MDA-MB-231/ATCC) of -94.4%, an activity at 10 µM (OVCAR-5 [1]) of -86% and a GI50 (COLO 205 [2]) of 1580 nM. The activity at 10 µM (LOX IMVI) was -54.4%, the activity at 10 µM (RXF 393) was -85.3% and the activity at 10 µM (MDA-MB-468) was -58.2%. The activity at 10 µM (SF-539) was -98.5%, the GI50 (KM12) was 1740 nM and the activity at 10 µM (BT-549) was -92.4%. For the same compound, the GI50 (NCI-H23) was 1910 nM, the activity at 10 µM (HOP-92 [3]) was -70.7% and the activity at 10 µM (SR) was -55.2%. It also gave a GI50 (NCI/ADR-RES [4]) of 1580 nM, a GI50 (NCI-H226 [5]) of 2040 nM and a GI50 (IGROV1) of 1780 nM. The activity at 10 µM (HCT-15) was -68.1%, the activity at 10 µM (NCI-H226 [6]) was -32.3% and the GI50 (NCI-H522) was 1700 nM. It also gave a GI50 (HCC-2998) of 1510 nM, an activity at 10 µM (PC-3) of -72% and an activity at 10 µM (T-47D [7]) of -20%. The GI50 (DU-145) was 1580 nM, the GI50 (HL-60(TB)) was 1740 nM and the GI50 (TK-10) was 1660 nM. It also gave a GI50 (NCI-H460) of 1550 nM, an activity at 10 µM (HS 578T) of -61.1% and a GI50 (T-47D [8]) of 1740 nM. The GI50 (786–0) was 1480 nM, the activity at 10 µM (COLO 205 [9]) was -82.9% and the GI50 (SN12C) was 2090 nM. It also gave a GI50 (HOP-92 [10]) of 1510 nM, a GI50 (SK-OV-3 [11]) of 2000 nM and a GI50 (ACHN) of 1780 nM. For the same compound, the activity at 10 µM (UACC-62) was -91.5%, the activity at 10 µM (SK-OV-3 [12]) was -44% and the GI50 (MALME-3M) was 1580 nM. The GI50 (A498) was 1620 nM, the GI50 (SNB-75) was 1450 nM and the GI50 (OVCAR-5 [13]) was 1620 nM. The GI50 (MCF7) was 1550 nM, the GI50 (CCRF-CEM) was 2040 nM and the GI50 (CAKI-1) was 1480 nM.
Compound CC[C@]12C=CCN3CC[C@@]4(c5ccc(OC)cc5N(C)[C@H]4[C@@](O)(C(=O)OC)[C@@H]1OC(=O)CCC(=O)N1CCN(C(c4ccc(F)cc4)c4ccc(F)cc4)CC1)[C@@H]32 [Compound 31] has a GI50 (OVCAR-3) of 1600 nM, a GI50 (SW-620) of 2270 nM and a GI50 (COLO 205 [2]) of 2820 nM. The activity at 10 µM (LOX IMVI) was -56%, the activity at 10 µM (RXF 393) was -56.3% and the activity at 10 µM (MDA-MB-468) was -69.1%. For the same compound, the activity at 10 µM (SF-539) was -38.4%, the GI50 (KM12) was 2360 nM and the activity at 10 µM (BT-549) was -60.6%. For the same compound, the GI50 (NCI-H23) was 2700 nM, the activity at 10 µM (HOP-92 [3]) was -44.9% and the GI50 (NCI/ADR-RES [4]) was 1950 nM. The GI50 (NCI-H226 [5]) was 1840 nM, the GI50 (IGROV1) was 2500 nM and the activity at 10 µM (HCT-15) was 3.11%. The activity at 10 µM (NCI-H226 [6]) was -32.4%, the GI50 (NCI-H522) was 2040 nM and the GI50 (HCC-2998) was 1240 nM. It also gave an activity at 10 µM (PC-3) of -28.5%, a GI50 (DU-145) of 2670 nM and a GI50 (HL-60(TB)) of 1930 nM. It also gave a GI50 (TK-10) of 2570 nM, a GI50 (NCI-H460) of 1930 nM and an activity at 10 µM (HS 578T) of -32.6%. It also gave a GI50 (T-47D [8]) of 2470 nM, an activity at 10 µM (NCI/ADR-RES [14]) of -62.1% and a GI50 (786–0) of 2470 nM. It also gave an activity at 10 µM (COLO 205 [9]) of -45%, a GI50 (SN12C) of 1470 nM and a GI50 (HOP-92 [10]) of 1990 nM. The GI50 (SK-OV-3 [11]) was 2020 nM, the GI50 (ACHN) was 2060 nM and the activity at 10 µM (UACC-62) was -84.3%. For the same compound, the activity at 10 µM (SK-OV-3 [12]) was -15.6%, the GI50 (MALME-3M) was 2200 nM and the GI50 (A498) was 2380 nM. The GI50 (SNB-75) was 2110 nM, the GI50 (OVCAR-5 [13]) was 2180 nM and the GI50 (MCF7) was 1740 nM. For the same compound, the GI50 (CCRF-CEM) was 2110 nM and the GI50 (CAKI-1) was 3070 nM.
